# Tests used:
# Format in all cases: in vivo
# [1] = test system: winter wheat (Triticum aestivum); assay: Test C pre-/postemergence: winter wheat
# Method in brief: (§1)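 Preemergence on seeds in loam/sand, postemergence on 2–18 cm (1–4-leaf) plants in peat-based medium; compounds in non-phytotoxic solvent with surfactant. After 13–15 days in greenhouse, visual rating versus controls, 0 (no effect) to 100 (complete control).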
# [2] = test system: barnyardgrass (Echinochloa crus-galli); assay: Test B flooded paddy: barnyardgrass; settings: Flood; 250 g ai/ha; applied to paddy water at 2-leaf stage; visually evaluated after 13 to 15 days
# Method in brief: (§2)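 Response scored visually, 0–100 relative to controls, 13–15 days after the compound was applied into paddy water; plants were at the 2-leaf stage in pots kept flooded to 3 cm.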
# [3] = test system: velvetleaf (Abutilon theophrasti); assay: Test A pre-/postemergence: velvetleaf
# Method in brief: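 Pre: directed soil spray after planting in loam + sand. Post: same formulation (non-phytotoxic solvent + surfactant) on 1–2-leaf plants, 2–10 cm. Greenhouse ~10 d; visual injury 0–100 vs untreated.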
# [4] = test system: pigweed (Amaranthus retroflexus); assay: Test C pre-/postemergence: pigweed
# Method in brief: as §1
# rice (Oryza sativa) = assay: Test B flooded paddy: rice; settings: Flood; 250 g ai/ha; applied to paddy water at 2-leaf stage; visually evaluated after 13 to 15 days
# Method in brief: as §2
# [5] = test system: galium (catchweed bedstraw, Galium aparine); assay: Test C pre-/postemergence: galium
# Method in brief: as §1
# [6] = test system: velvetleaf (Abutilon theophrasti); assay: Test C pre-/postemergence: velvetleaf
# Method in brief: as §1
# wild oat (Avena fatua) = assay: Test C pre-/postemergence: wild oat
# Method in brief: as §1
# [7] = test system: nightshade (eastern black nightshade, Solanum ptycanthum); assay: Test C pre-/postemergence: nightshade; settings: Preemergence
# Method in brief: as §1
# [8] = test system: foxtail, green (green foxtail, Setaria viridis); assay: Test C pre-/postemergence: foxtail, green
# Method in brief: as §1
# [9] = Postemergence, 31 g ai/ha, scale 0 to 100 (0 no effect, 100 complete control)
# [10] = Postemergence, 62 g ai/ha, scale 0 to 100 (0 no effect, 100 complete control)
# [11] = Postemergence, 125 g ai/ha, scale 0 to 100, 0 no effect, 100 complete control
# [12] = Postemergence, 250 g ai/ha, scale 0 to 100
# [13] = Preemergence, 62 g ai/ha, scale of 0 to 100, 0 is no effect, 100 is complete control
# [14] = Preemergence, 125 g ai/ha, scale 0 to 100, 0 no effect, 100 complete control
# [15] = Preemergence, 250 g ai/ha, scale 0 to 100, 0 no effect, 100 complete control
# [16] = Preemergence, 31 g ai/ha, scale of 0 to 100, 0 is no effect, 100 is complete control
smiles,measurement,setting,value
COc1nn(-c2cccc(F)c2)nc1Cc1ccnc(C(F)(F)F)c1 [Compound 139],"Plant response rating, Wheat",[1]; [9],10
same,"Plant response rating, Wheat",[1]; [10],10
same,"Plant response rating, Wheat",[1]; [11],40
same,"Plant response rating, Wheat",[1]; [12],40
same,"Plant response rating, Wheat",[1]; [13],0
same,"Plant response rating, Wheat",[1]; [14],10
same,"Plant response rating, Wheat",[1]; [15],20
same,"Plant response rating, Barnyardgrass (0 to 100 scale, 0 is no effect, 100 is complete control)",[2],65
same,"Plant response rating, Velvetleaf","[3]; Postemergence, 125 g ai/ha, 0 to 100 scale, 0 is no effect, 100 is complete control",90
same,Velvetleaf plant response rating,"[3]; Postemergence, 500 g ai/ha, visual rating on 0 to 100 scale (0 no effect, 100 complete control), approximately ten days",100
same,"Plant response rating, Velvetleaf","[3]; Preemergence, 125 g ai/ha, 0 to 100 scale where 0 is no effect and 100 is complete control",30
same,"Plant response rating, Velvetleaf","[3]; Preemergence, 500 g ai/ha, 0 to 100 scale (0 no effect, 100 complete control)",90
same,"Plant response rating, Pigweed",[4]; [9],95
same,"Plant response rating, Pigweed",[4]; [10],98
same,"Plant response rating, Pigweed",[4]; [11],98
same,"Plant response rating, Pigweed",[4]; [12],98
same,"Plant response rating, Pigweed",[4]; [16],98
same,"Plant response rating, Pigweed",[4]; [13],98
same,"Plant response rating, Pigweed",[4]; [14],100
same,"Plant response rating, Pigweed",[4]; [15],100
same,"Plant response rating, Rice (0 to 100 scale, 0 is no effect, 100 is complete control)",rice (Oryza sativa),45
same,"Plant response rating, Galium",[5]; [9],60
same,"Plant response rating, Galium",[5]; [10],70
same,"Plant response rating, Galium",[5]; [11],80
same,"Plant response rating, Galium",[5]; [12],80
same,"Plant response rating, Galium",[5]; [16],5
same,"Plant response rating, Galium",[5]; [13],80
same,"Plant response rating, Galium",[5]; [14],85
same,"Plant response rating, Galium",[5]; [15],95
same,"Plant response rating, Velvetleaf",[6]; [9],20
same,"Plant response rating, Velvetleaf",[6]; [10],35
same,"Plant response rating, Velvetleaf",[6]; [11],70
same,"Plant response rating, Velvetleaf",[6]; [12],75
same,"Plant response rating, Velvetleaf",[6]; [16],0
same,"Plant response rating, Velvetleaf",[6]; [13],10
same,"Plant response rating, Velvetleaf",[6]; [14],40
same,"Plant response rating, Velvetleaf",[6]; [15],40
same,"Plant response rating, Oat, Wild",wild oat (Avena fatua); [9],40
same,"Plant response rating, Oat, Wild",wild oat (Avena fatua); [10],50
same,"Plant response rating, Oat, Wild",wild oat (Avena fatua); [11],60
same,"Plant response rating, Oat, Wild",wild oat (Avena fatua); [12],80
same,"Plant response rating, Oat, Wild",wild oat (Avena fatua); [16],10
same,"Plant response rating, Oat, Wild",wild oat (Avena fatua); [13],50
same,"Plant response rating, Oat, Wild",wild oat (Avena fatua); [15],85
same,"Plant response rating, Nightshade","[7]; 62 g ai/ha, scale of 0 to 100, 0 is no effect, 100 is complete control",75
same,"Plant response rating, Nightshade","[7]; 125 g ai/ha, scale 0 to 100, 0 no effect, 100 complete control",85
same,"Plant response rating, Nightshade","[7]; 250 g ai/ha, scale 0 to 100, 0 no effect, 100 complete control",98
same,"Plant response rating, Foxtail, Green",[8]; [9],95
same,"Plant response rating, Foxtail, Green",[8]; [10],95
same,"Plant response rating, Foxtail, Green",[8]; [11],100
same,"Plant response rating, Foxtail, Green",[8]; [12],100
same,"Plant response rating, Foxtail, Green",[8]; [16],90
same,"Plant response rating, Foxtail, Green",[8]; [13],90
same,"Plant response rating, Foxtail, Green",[8]; [15],90

# From patent US9302999B2, “Substituted triazoles as herbicides” (E. I. DU PONT DE NEMOURS AND COMPANY, priority 2012, dated 2016)
